Measured values: patent publication US20060183043A1, “Electrophotographic photoreceptor containing pyridine-substituted asymmetric naphthalenetetracarboxylic acid diimide derivatives and electrophotographic imaging apparatus” (Samsung Electronics Co., Ltd., priority 2005, published 2006)

Test: Solubility test (amount of organic solvent needed to completely dissolve 1 g of compound)
Type: physicochemical
Settings: 1 g compound, room temperature, solvent added drop by drop with stirring
Description: 1 g of a compound to be tested was poured into a test tube with stirring at room temperature and solvents listed in Table 1 were slowly added drop by drop. The amounts of the solvents required to completely dissolve 1 g of the tested compound were measured.

Structure (SMILES) | Amount of solvent required to completely dissolve 1 g of the tested compound: Acetone [g] | Amount of solvent required to completely dissolve 1 g of the tested compound: Chloroform [g] | Amount of solvent required to completely dissolve 1 g of the tested compound: Methylene chloride [g] | Amount of solvent required to completely dissolve 1 g of the tested compound: Tetrahydrofuran [g]
CCc1ccc(C)nc1N1C(=O)c2ccc3c4c(ccc(c24)C1=O)C(=O)N(c1ccccc1)C3=O [Compound (1)] | 130 | 5.3 | 6.5 | 5.8
CCc1ccc(C)nc1N1C(=O)c2ccc3c4c(ccc(c24)C1=O)C(=O)N(c1nc(C)ccc1CC)C3=O [Compound (40)] | 282 | 8.6 | 10.2 | 9.7
